The series is described as follows: Pharmacokinetic study in rabbits (plasma concentration by LC-MS). In kind it is in vivo, rabbit. The protocol: The pharmacokinetic properties of FXII900 applied intravenously were determined as follows. Female New Zealand White rabbits (10–20 weeks old) were injected with 3.7 mg kg^−1 FXII900 dissolved in 1 ml PBS, pH 7.4 via the ear vein. […] The concentration of FXII900 in the plasma samples was determined by LC-MS as described below. The pharmacokinetic properties of FXII900 applied subcutaneously were determined as follows. Female New Zealand White rabbits (2.5–2.9 kg) were injected subcutaneously over the shoulders with 3.7 mg kg^−1 of FXII900 dissolved in 1 ml PBS pH 7.4. […] The plasma was stored at −80 °C. The concentration of FXII900 in the plasma samples was determined by LC-MS as described below.
The concentration of FXII900 in the plasma samples was quantified based on peak intensities of total ion current (TIC) chromatograms acquired by LC-MS (LCMS-2020, Shimadzu). To 15 μl of plasma sample, 1 μM of internal standard peptide and 5 μl of 6 M guanidinium hydrochloride solution were added and mixed. Plasma proteins were precipitated by the addition of 400 µl of ice cold ethanol (99.9% [v/v] EtOH, 0.1% [v/v] TFA) and incubated on ice for one hour. Precipitate was removed by centrifugation (9000 × g, 20 min, 4 °C) and the supernatant dried by centrifugal evaporation under vacuum. Dried samples were dissolved by sequentially adding 2 μl of DMSO and 18 μl of H2O containing 0.1% (v/v) CHOOH and analyzed by LC-MS. The samples were analyzed using an analytical C18 column (Phenomenex C18 Kinetex column, 50 × 2.1 mm, 2.6 µm, 100 Å) and a linear gradient of 5–30% solvent B (MeCN, 0.05% [v/v] CHOOH) in solvent A (H2O, 0.05% [v/v] CHOOH) in 4.5 min at a flow of 1 ml per min. The mass was measured on a single quadrupole mass spectrometer in positive ion mode using electrospray ionization. Peptides were quantified based on the absolute intensities of the detected mass peaks (M^3+ and M^4+).

[1] abbreviates: female, New Zealand White, rabbit, plasma, intravenous, 3.7 mg kg-1.

The structures appear in SMILES notation. Several values for one entry are separate records, joined by “and”; a condition that tells them apart may be missing. Identical values can stand only once. Like-named read-outs stand apart in the source and are kept apart here. Starred links: 1 amine or outer side, 2 acyl side, 3 side chain; linkers in the order of their positions; H or OH if unused. Positions of bridges follow the written chain, without caps; N, C: chain ends. Non-standard residues stand in square brackets, D forms with d. Residues, ends and D or L forms follow the SMILES beside them. TATA = O=C(CC[*:1])N1CN(C(=O)CC[*:2])CN(C(=O)CC[*:3])C1; Phe(4-F) = N[C@@H](Cc1ccc(F)cc1)C(=O)O; β3hR = N=C(N)NCCC[C@H](N)CC(=O)O

The Vd is the apparent volume that relates the amount in the body to the concentration in plasma or blood. A low value points to confinement near the circulation. The clearance is the rate of elimination divided by the concentration. A lower clearance goes with inefficient removal. Under setting [1], `CC(C)C[C@@H]1NC(=O)[C@H](CCC(N)=O)NC(=O)[C@H](Cc2c[nH]cn2)NC(=O)[C@@H]2CSCCC(=O)N3CN(CN(C3)C(=O)CCSC[C@H](NC(=O)[C@@H](CO)NC(=O)[C@H](N)CCCNC(=N)N)C(=O)N[C@@H](Cc3ccc(F)cc3)C(=O)N[C@@H](CCCNC(=N)N)C(=O)N[C@@H](CC(C)C)C(=O)N3CCC[C@H]3C(=O)N2)C(=O)CCSC[C@@H](C(N)=O)NC(=O)C[C@H](CCCNC(=N)N)NC1=O` [FXII900] (H-[dR][dS]C[Phe(4-F)]RLPCHQL[β3hR]C-NH2; linker 3-8-13 via TATA) displayed a Vd of 0.28 ± 0.05 L/kg. For the same compound, the clearance under setting [1] was 0.966 ± 0.06 L/h/kg. In addition, the half-life (female, New Zealand White, rabbit, plasma, intravenous, 3.7 mg kg^−1, read-out: elimination half-life (t1/2 β)) turned out to be 12 ± 2 min. In addition, where the note is “female, New Zealand White, rabbit, plasma, iv, 3.7 mg/kg, intravenous administration, 2 min, individual rabbits and analyses, read-out: Plasma conc.”, the level at time molar at 2 min was 5.51 µM. Further, where the note is “female, New Zealand White, rabbit, plasma, iv, 3.7 mg/kg, intravenous administration, 5 min, individual rabbits and analyses, read-out: Plasma conc.”, the level at time molar at 5 min is 2.61 µM. Besides, the level at time molar at 10 min (female, New Zealand White, rabbit, plasma, iv, 3.7 mg/kg, intravenous administration, 10 min, individual rabbits and analyses, read-out: Plasma conc.) is 2.25 µM. Besides, the level at time molar at 20 min (female, New Zealand White, rabbit, plasma, iv, 3.7 mg/kg, intravenous administration, 20 min, individual rabbits and analyses, read-out: Plasma conc.) was found to be 1.26 µM. Also, the level at time molar at 40 min by setting is: (female, New Zealand White, rabbit, plasma, iv, 3.7 mg/kg, intravenous administration, 40 min, individual rabbits and analyses, read-out: Plasma conc.) 0.503 µM; (female, New Zealand White, rabbit, plasma, sc, 3.7 mg/kg, subcutaneous administration, 40 min, individual rabbits and analyses, read-out: Plasma conc.) 0.254 µM. Moreover, the “Plasma conc.” value runs as follows: (intravenous administration, 5 min, individual rabbits and analyses) 2.596 µM; (intravenous administration, 10 min, individual rabbits and analyses) 2.079 µM; (intravenous administration, 20 min, individual rabbits and analyses) 1.683 µM and 1.119 µM; (intravenous administration, 40 min, individual rabbits and analyses) 0.3139 µM; (subcutaneous administration, 10 min, individual rabbits and analyses) 0.2376 µM; (subcutaneous administration, 160 min, individual rabbits and analyses) -0.00509 µM.

The values are drawn from paper PMC7403315, “Cyclic peptide FXII inhibitor provides safe anticoagulation in a thrombosis model and in artificial lungs” (Nature Communications, 2020).
